From ChEMBL document CHEMBL5247592, “Discovery of novel VEGFR-2-PROTAC degraders based on the localization of lysine residues via recruiting VHL for the treatment of gastric cancer” (Eur J Med Chem, 2022)
Activity calls are given as the source filed them. The rule behind the calls is not given here. Residues, ends and D or L forms follow the SMILES beside them. *: point of attachment. Cbz = O=C(OCc1ccccc1)*

Experiments:
[1] = system: HGC-27; assay: Antiproliferative activity against human HGC-27 cells assessed as inhibition of cell growth incubated for 72 hrs by MTT assay; format: functional, cell-based; conditions: HGC-27, 72 h
[2] = target: T1, Vascular endothelial growth factor receptor 2 (Homo sapiens, UniProt P35968); assay: Inhibition of VEGFR2 (unknown origin) at 1 uM by caliper mobility shift assay relative to control
T1 sequence (P35968 whole entry): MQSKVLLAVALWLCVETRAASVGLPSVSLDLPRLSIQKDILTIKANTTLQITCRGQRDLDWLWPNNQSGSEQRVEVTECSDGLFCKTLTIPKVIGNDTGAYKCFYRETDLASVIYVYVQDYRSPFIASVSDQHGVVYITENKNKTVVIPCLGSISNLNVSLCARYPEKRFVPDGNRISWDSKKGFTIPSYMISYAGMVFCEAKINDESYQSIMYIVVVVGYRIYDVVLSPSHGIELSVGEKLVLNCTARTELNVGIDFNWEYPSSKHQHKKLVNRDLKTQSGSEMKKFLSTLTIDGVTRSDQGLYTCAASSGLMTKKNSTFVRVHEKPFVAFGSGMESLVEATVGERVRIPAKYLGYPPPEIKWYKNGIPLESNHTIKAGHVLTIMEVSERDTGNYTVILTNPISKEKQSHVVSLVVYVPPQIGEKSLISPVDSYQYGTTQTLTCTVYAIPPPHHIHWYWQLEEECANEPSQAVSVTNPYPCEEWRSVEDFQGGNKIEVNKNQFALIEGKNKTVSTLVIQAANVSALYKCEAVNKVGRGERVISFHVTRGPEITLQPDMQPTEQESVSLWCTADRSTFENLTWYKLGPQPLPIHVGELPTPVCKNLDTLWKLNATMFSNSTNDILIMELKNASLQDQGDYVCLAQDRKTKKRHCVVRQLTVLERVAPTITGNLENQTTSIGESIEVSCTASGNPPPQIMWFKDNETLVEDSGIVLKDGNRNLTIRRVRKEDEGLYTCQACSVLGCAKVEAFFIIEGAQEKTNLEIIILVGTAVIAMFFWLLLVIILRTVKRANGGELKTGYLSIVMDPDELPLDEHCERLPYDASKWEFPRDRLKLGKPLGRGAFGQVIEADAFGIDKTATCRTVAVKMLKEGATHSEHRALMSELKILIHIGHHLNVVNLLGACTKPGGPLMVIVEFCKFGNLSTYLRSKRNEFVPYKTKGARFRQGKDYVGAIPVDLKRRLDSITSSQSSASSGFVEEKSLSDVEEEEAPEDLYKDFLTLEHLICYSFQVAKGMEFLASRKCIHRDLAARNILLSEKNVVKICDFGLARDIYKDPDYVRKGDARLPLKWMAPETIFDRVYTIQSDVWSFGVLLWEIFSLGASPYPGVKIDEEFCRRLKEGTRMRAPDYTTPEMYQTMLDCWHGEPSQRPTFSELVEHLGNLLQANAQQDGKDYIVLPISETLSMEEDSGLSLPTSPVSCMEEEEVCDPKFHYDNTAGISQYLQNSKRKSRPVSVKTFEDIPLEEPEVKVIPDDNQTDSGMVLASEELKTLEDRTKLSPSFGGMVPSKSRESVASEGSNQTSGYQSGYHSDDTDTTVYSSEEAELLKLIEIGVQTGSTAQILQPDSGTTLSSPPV

[3] = Cytotoxicity against HUVEC cells assessed as inhibition of cell growth incubated for 72 hrs by MTT assay; format: toxicity, cell-based; conditions: human
[4] = Cytotoxicity against human GES1 cells assessed as inhibition of cell growth incubated for 72 hrs by MTT assay; format: toxicity, cell-based
[5] = Cytotoxicity against HEK293T cells assessed as inhibition of cell growth incubated for 72 hrs by MTT assay; format: toxicity, cell-based, HEK-293T; conditions: human
[6] = target: T2, von Hippel-Lindau disease tumor suppressor/Vascular endothelial growth factor receptor 2 (Homo sapiens, UniProt P35968+P40337); assay: PROTAC activity at VHL/VEGFR2 in human HGC-27 cells assessed as reduction in VEGFR2 protein level incubated for 24 hrs by Western blot analysis; format: cell-based
Target sequence in this assay (P35968 whole entry): as above
Target sequence in this assay (P40337 whole entry): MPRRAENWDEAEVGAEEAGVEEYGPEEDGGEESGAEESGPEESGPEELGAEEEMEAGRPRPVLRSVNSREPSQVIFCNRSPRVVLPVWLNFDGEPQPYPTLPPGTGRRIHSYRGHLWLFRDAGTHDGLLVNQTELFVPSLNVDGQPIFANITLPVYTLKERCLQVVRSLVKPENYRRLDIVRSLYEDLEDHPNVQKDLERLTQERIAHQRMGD

[7] = target: T2, von Hippel-Lindau disease tumor suppressor/Vascular endothelial growth factor receptor 2; assay: PROTAC activity at VHL/VEGFR2 in human HGC-27 cells assessed as reduction in VEGFR2 protein level by measuring maximal efficacy at 3.33 uM incubated for 24 hrs by Western blot analysis relative to control; format: cell-based
Target sequence in this assay (P35968 20-1356 limits assumed): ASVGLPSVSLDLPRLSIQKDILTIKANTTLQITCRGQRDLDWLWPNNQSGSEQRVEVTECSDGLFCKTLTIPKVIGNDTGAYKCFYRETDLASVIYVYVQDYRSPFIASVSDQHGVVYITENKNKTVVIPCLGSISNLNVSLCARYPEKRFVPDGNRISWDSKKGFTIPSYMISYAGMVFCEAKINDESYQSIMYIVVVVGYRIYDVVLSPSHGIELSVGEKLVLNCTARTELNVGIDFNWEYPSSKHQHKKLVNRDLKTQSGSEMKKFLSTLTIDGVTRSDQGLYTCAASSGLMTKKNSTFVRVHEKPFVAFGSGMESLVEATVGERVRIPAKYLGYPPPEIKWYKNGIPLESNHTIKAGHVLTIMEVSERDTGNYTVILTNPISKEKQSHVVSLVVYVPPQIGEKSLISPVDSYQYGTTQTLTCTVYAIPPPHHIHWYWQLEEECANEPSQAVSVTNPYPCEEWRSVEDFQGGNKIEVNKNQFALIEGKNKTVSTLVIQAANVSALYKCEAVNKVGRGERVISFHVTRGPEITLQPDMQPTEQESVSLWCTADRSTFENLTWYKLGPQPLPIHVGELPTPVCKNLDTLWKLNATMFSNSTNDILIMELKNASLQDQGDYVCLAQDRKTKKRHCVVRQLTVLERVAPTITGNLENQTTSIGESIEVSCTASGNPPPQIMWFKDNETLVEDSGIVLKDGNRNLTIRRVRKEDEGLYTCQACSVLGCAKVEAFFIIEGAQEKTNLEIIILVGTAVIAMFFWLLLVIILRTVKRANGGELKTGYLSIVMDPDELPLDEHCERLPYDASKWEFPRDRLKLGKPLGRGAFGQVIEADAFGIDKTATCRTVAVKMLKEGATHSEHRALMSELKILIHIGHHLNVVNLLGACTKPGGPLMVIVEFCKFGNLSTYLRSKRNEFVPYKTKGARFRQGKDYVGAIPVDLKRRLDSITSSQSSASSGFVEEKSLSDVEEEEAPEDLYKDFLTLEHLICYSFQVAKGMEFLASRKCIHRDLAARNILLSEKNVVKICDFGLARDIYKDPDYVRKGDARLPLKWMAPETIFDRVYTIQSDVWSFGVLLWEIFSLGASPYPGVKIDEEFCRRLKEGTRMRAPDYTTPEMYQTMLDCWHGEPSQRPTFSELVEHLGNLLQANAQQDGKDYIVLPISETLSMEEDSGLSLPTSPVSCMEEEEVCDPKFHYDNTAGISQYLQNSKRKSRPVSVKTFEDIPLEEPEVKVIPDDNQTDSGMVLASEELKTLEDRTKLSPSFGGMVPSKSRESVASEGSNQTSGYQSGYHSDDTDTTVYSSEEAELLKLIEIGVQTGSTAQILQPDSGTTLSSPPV
Target sequence in this assay (P40337 whole entry partner): as the sequence (P40337 whole entry) above

[8] = target: T2, von Hippel-Lindau disease tumor suppressor/Vascular endothelial growth factor receptor 2; assay: PROTAC activity at VHL/VEGFR2 in human HGC-27 cells assessed as induction of VEGRF2 protein degradation at 10 uM incubated for 2 hrs by Western blot analysis; format: cell-based
Target sequence in this assay (P35968 20-1356 limits assumed): as the sequence (P35968 20-1356 limits assumed) above
Target sequence in this assay (P40337 whole entry partner): as the sequence (P40337 whole entry) above

[9] = target: T1, Vascular endothelial growth factor receptor 2; assay: Inhibition of VEGFR2 (unknown origin) by caliper mobility shift assay
[10] = target: T2, von Hippel-Lindau disease tumor suppressor/Vascular endothelial growth factor receptor 2; assay: PROTAC activity at VHL/VEGFR2 in human HGC-27 cells assessed as reduction in VEGFR2 protein level by measuring maximal efficacy incubated for 24 hrs by Western blot analysis relative to control; format: cell-based
Target sequence in this assay (P35968 20-1356 limits assumed): as the sequence (P35968 20-1356 limits assumed) above
Target sequence in this assay (P40337 whole entry partner): as the sequence (P40337 whole entry) above

[11] = target: T2, von Hippel-Lindau disease tumor suppressor/Vascular endothelial growth factor receptor 2; assay: PROTAC activity at VHL/VEGFR2 in human HGC-27 cells assessed as induction of VEGRF2 protein degradation at 1 uM incubated for 2 hrs by Western blot analysis; format: cell-based
Target sequence in this assay (P35968 20-1356 limits assumed): as the sequence (P35968 20-1356 limits assumed) above
Target sequence in this assay (P40337 whole entry partner): as the sequence (P40337 whole entry) above

[12] = target: T2, von Hippel-Lindau disease tumor suppressor/Vascular endothelial growth factor receptor 2; assay: PROTAC activity at VHL/VEGFR2 in human HGC-27 cells assessed as induction of VEGRF2 protein degradation at 100 nM incubated for 2 hrs by Western blot analysis; format: cell-based
Target sequence in this assay (P35968 20-1356 limits assumed): as the sequence (P35968 20-1356 limits assumed) above
Target sequence in this assay (P40337 whole entry partner): as the sequence (P40337 whole entry) above

| Structure (SMILES) | IC50 [1] [µM] | inhibition [2] [%] | IC50 at 72 h [3] [µM] | IC50 at 72 h [4] [µM] | IC50 at 72 h [5] [µM] | EC50 [6] [µM] | Emax [7] [%] | Activity [8] | IC50 [9] [µM] | Emax [10] [%] | Activity [11] | Activity [12] |
| --- | --- | --- | --- | --- | --- | --- | --- | --- | --- | --- | --- | --- |
| Cc1ccc(NC(=O)Cn2cc(-c3ccc4c(NC(=O)CCCCCCCCCCC(=O)N[C@@H](C(=O)N5C[C@H](O)C[C@H]5C(=O)NCc5ccc(-c6scnc6C)cc5)C(C)(C)C)n[nH]c4c3)cn2)cc1C(F)(F)F | > 50 | 60.4 | > 50 | > 50 | > 100 | – | – | – | – | – | – | – |
| Cc1ccc(NC(=O)Cn2cc(-c3ccc4c(NC(=O)c5ccc(NC(=O)CCCCC(=O)N[C@H](C(=O)N6C[C@H](O)C[C@H]6C(=O)NCc6ccc(-c7scnc7C)cc6)C(C)(C)C)cc5)n[nH]c4c3)cn2)cc1C(F)(F)F | 10.1 | – | 13 | 46.4 | 46.8 | 0.33 | 62.6 | – | – | – | – | – |
| Cc1ccc(NC(=O)Cn2cc(-c3ccc4c(NC(=O)c5ccc(NC(=O)CCCCCCCCCCC(=O)N[C@H](C(=O)N6C[C@H](O)C[C@H]6C(=O)NCc6ccc(-c7scnc7C)cc6)C(C)(C)C)cc5)n[nH]c4c3)cn2)cc1C(F)(F)F | 5.13 | – | 17.6 | 31.8 | 9.45 | 0.89 | 42.9 | – | – | – | – | – |
| CC(=O)N[C@H](C(=O)N1C[C@H](O)C[C@H]1C(=O)NCc1ccc(-c2scnc2C)cc1)C(C)(C)C | – | – | – | – | – | – | – | inactive | – | – | – | – |
| Cc1ccc(NC(=O)Cn2cc(-c3ccc4c(NC(=O)c5ccc(N6CCNCC6)cc5)n[nH]c4c3)cn2)cc1C(F)(F)F | 2.49 | – | 1.7 | 1.32 | 3.57 | – | – | – | 0.00042 | – | – | – |
| Cc1ccc(NC(=O)Cn2cc(-c3ccc4c(NC(=O)c5ccc(N)cc5)nn(C(=O)CCCCCCCCCCC(=O)N[C@H](C(=O)N5C[C@H](O)C[C@H]5C(=O)NCc5ccc(-c6scnc6C)cc5)C(C)(C)C)c4c3)cn2)cc1C(F)(F)F | 1.44 | 96.3 | 34.6 | 49.7 | 25.9 | 0.32 | – | – | – | 81.7 | – | – |
| NS(=O)(=O)OC[C@@H]1C[C@@H](n2ccc3c(N[C@H]4CCc5ccccc54)ncnc32)C[C@@H]1O | – | – | – | – | – | – | – | – | – | – | inactive | – |
| CC(C)C[C@@H](C=O)NC(=O)[C@H](CC(C)C)NC(=O)[C@H](CC(C)C)NC(=O)OCc1ccccc1 (Cbz-Leu-Leu-Leu-aldehyde) | – | – | – | – | – | – | – | inactive | – | – | – | – |
| Cc1ccc(NC(=O)Cn2cc(-c3ccc4c(NC(=O)c5ccc(NC(=O)CCCCCCC(=O)N[C@H](C(=O)N6C[C@H](O)C[C@H]6C(=O)NCc6ccc(-c7scnc7C)cc6)C(C)(C)C)cc5)n[nH]c4c3)cn2)cc1C(F)(F)F | 4.36 | – | 4.13 | 14.3 | 17.9 | 0.28 | 48 | – | – | – | – | – |
| Cc1ccc(NC(=O)Cn2cc(-c3ccc4c(NC(=O)c5ccc(N)cc5)n[nH]c4c3)cn2)cc1C(F)(F)F | 2.12 | – | 0.11 | 2.35 | 0.025 | – | – | – | 0.0027 | – | – | inactive |
